According to PubChem BioAssay AID180 (DTP/NCI, 2004):
“And” between values parts separate entries of the source, which are not always exact repeats. Equal entries are not always repeated.

Test system: BDF1 mice, Adenocarcinoma 755 s.c., tumor weight T/C
Assay: NCI In Vivo Anticancer Drug Screen. Data for tumor model Adenocarcinoma 755 (subcutaneous) in B6D2F1 (BDF1) mice
Conditions: endpoint: mean tumor weight, higher = larger tumour
In short: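 Compound activity was tested in mice carrying transplanted tumors. Survival or tumor size was measured, and each value is the treated-group measurement divided by that of the vehicle-treated control group (T/C).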

[1] = dose: 25.0 mg/kg/injection, schedule: Q01DX011 (ip), vehicle: methylcellulose (MC)
[2] = dose: 75.0 mg/kg/injection, schedule: Q01DX011 (ip), vehicle: methylcellulose (MC)
[3] = dose: 2.0 mg/kg/injection, schedule: Q01DX011 (ip), vehicle: carboxymethylcellulose (CMC)
[4] = dose: 4.0 mg/kg/injection, schedule: Q01DX011 (ip), vehicle: carboxymethylcellulose (CMC)
[5] = dose: 8.0 mg/kg/injection, schedule: Q01DX011 (ip), vehicle: carboxymethylcellulose (CMC)
[6] = dose: 16.0 mg/kg/injection, schedule: Q01DX011 (ip), vehicle: carboxymethylcellulose (CMC)
[7] = dose: 125.0 mg/kg/injection, schedule: Q01DX011 (ip), vehicle: carboxymethylcellulose (CMC)
[8] = dose: 250.0 mg/kg/injection, schedule: Q01DX011 (ip), vehicle: carboxymethylcellulose (CMC)

## C[C@]12CC[C@H](O)C[C@H]1CC[C@@H]1[C@@H]2CC[C@]2(C)[C@@H](C3=CC(=O)OC3)[C@@H](O)C[C@]12O
dose: 3.0 mg/kg/injection, schedule: Q01DX011 (sc), vehicle: steriod suspending solution
  T/C: 91 % of control
dose: 25.0 mg/kg/injection, schedule: Q01DX011 (sc), vehicle: steriod suspending solution
  T/C: 80 % of control
dose: 50.0 mg/kg/injection, schedule: Q01DX011 (sc), vehicle: steriod suspending solution
  T/C: 110 % of control

## CCc1c(Cl)nc(N)nc1Nc1ccccc1C
dose: 15.0 mg/kg/injection, schedule: Q01DX011 (ip), vehicle: methylcellulose (MC)
  T/C: 115 % of control
dose: 62.0 mg/kg/injection, schedule: Q01DX011 (ip), vehicle: methylcellulose (MC)
  T/C: 88 % of control
dose: 125.0 mg/kg/injection, schedule: Q01DX011 (ip), vehicle: methylcellulose (MC)
  T/C: 114 % of control
dose: 250.0 mg/kg/injection, schedule: Q01DX011 (ip), vehicle: methylcellulose (MC)
  T/C: 94 % of control

## CSc1ncnc2c1ncn2CCO
[1]
  T/C: 119 % of control

## Nc1nc(SCc2ccc(Br)cc2)c2ncn(C3OC(CO)C(O)C3O)c2n1 (centres undefined)
dose: 6.0 mg/kg/injection, schedule: Q01DX011 (ip), vehicle: methylcellulose (MC)
  T/C: 80 % of control
[1]
  T/C: 32 % of control
dose: 30.0 mg/kg/injection, schedule: Q01DX011 (ip), vehicle: methylcellulose (MC)
  T/C: 41 % of control
[2]
  T/C: 5 % of control

## N#CCSc1ncnc2nc[nH]c12
dose: 1.0 mg/kg/injection, schedule: Q01DX011 (im), vehicle: carboxymethylcellulose (CMC)
  T/C: 63 % of control
dose: 1.0 mg/kg/injection, schedule: Q01DX011 (ip), vehicle: carboxymethylcellulose (CMC)
  T/C: 54 % of control
dose: 1.0 mg/kg/injection, schedule: Q01DX011 (iv), vehicle: carboxymethylcellulose (CMC)
  T/C: 79 % of control
dose: 1.0 mg/kg/injection, schedule: Q01DX011 (sc), vehicle: carboxymethylcellulose (CMC)
  T/C: 53 % of control
dose: 2.0 mg/kg/injection, schedule: Q01DX011 (im), vehicle: carboxymethylcellulose (CMC)
  T/C: 9 % of control
[3]
  T/C: 14 % of control
dose: 2.0 mg/kg/injection, schedule: Q01DX011 (iv), vehicle: carboxymethylcellulose (CMC)
  T/C: 28 % of control
dose: 2.0 mg/kg/injection, schedule: Q01DX011 (sc), vehicle: carboxymethylcellulose (CMC)
  T/C: 10 % of control
dose: 4.0 mg/kg/injection, schedule: Q01DX011 (im), vehicle: carboxymethylcellulose (CMC)
  T/C: 1 % of control
[4]
  T/C: 6 % of control
[5]
  T/C: 7 % of control
dose: 8.0 mg/kg/injection, schedule: Q01DX011 (iv), vehicle: carboxymethylcellulose (CMC)
  T/C: 1 % of control
[6]
  T/C: 3 % of control
dose: 50.0 mg/kg/injection, schedule: Q03DX004 (ip), vehicle: carboxymethylcellulose (CMC)
  T/C: 2 % of control
dose: 64.0 mg/kg/injection, schedule: Q01DX011 (ip), vehicle: carboxymethylcellulose (CMC)
  T/C: 2 % of control
dose: 100.0 mg/kg/injection, schedule: Q01DX001 (ip), vehicle: carboxymethylcellulose (CMC)
  T/C: 20 % of control
dose: 100.0 mg/kg/injection, schedule: Q03DX004 (ip), vehicle: carboxymethylcellulose (CMC)
  T/C: 1 % of control
dose: 100.0 mg/kg/injection, schedule: Q07DX002 (ip), vehicle: carboxymethylcellulose (CMC)
  T/C: 5 % of control
dose: 200.0 mg/kg/injection, schedule: Q01DX001 (ip), vehicle: carboxymethylcellulose (CMC)
  T/C: 20 % of control
dose: 200.0 mg/kg/injection, schedule: Q07DX002 (ip), vehicle: carboxymethylcellulose (CMC)
  T/C: 3 % of control

## C[N+](C)(C)c1ncnc2c1ncn2C1OC(CO)C(O)C1O (centres undefined)
dose: 30.0 mg/kg/injection, schedule: Q01DX011 (ip), vehicle: saline
  T/C: 48 % of control and 61 % of control
dose: 60.0 mg/kg/injection, schedule: Q01DX011 (ip), vehicle: saline
  T/C: 109 % of control
dose: 120.0 mg/kg/injection, schedule: Q01DX011 (ip), vehicle: saline
  T/C: 28 % of control
dose: 240.0 mg/kg/injection, schedule: Q01DX011 (ip), vehicle: saline
  T/C: 9 % of control

## c1ccc2cc(-c3cc4ccccc4s3)ccc2c1
dose: 100.0 mg/kg/injection, schedule: Q01DX011 (ip), vehicle: saline
  T/C: 70 % of control
dose: 200.0 mg/kg/injection, schedule: Q01DX011 (ip), vehicle: saline
  T/C: 59 % of control
dose: 400.0 mg/kg/injection, schedule: Q01DX011 (ip), vehicle: saline
  T/C: 49 % of control
dose: 800.0 mg/kg/injection, schedule: Q01DX011 (ip), vehicle: saline
  T/C: 42 % of control

## O=CN(O)CC(=O)O
dose: 62.5 mg/kg/injection, schedule: Q01DX011 (ip), vehicle: carboxymethylcellulose (CMC)
  T/C: 98 % of control
[7]
  T/C: 86 % of control
[8]
  T/C: 85 % of control

## Nc1nc(SN=Nc2ccc(S(=O)(=O)O)cc2)c2[nH]cnc2n1
dose: 0.13 mg/kg/injection, schedule: Q01DX011 (sc), vehicle: alkali diluted with saline
  T/C: 70 % of control
dose: 0.25 mg/kg/injection, schedule: Q01DX011 (sc), vehicle: alkali diluted with saline
  T/C: 48 % of control
dose: 0.5 mg/kg/injection, schedule: Q01DX011 (ip), vehicle: alkali diluted with saline
  T/C: 50 % of control
dose: 0.5 mg/kg/injection, schedule: Q01DX011 (ip), vehicle: other
  T/C: 46 % of control
dose: 0.5 mg/kg/injection, schedule: Q01DX011 (sc), vehicle: alkali diluted with saline
  T/C: 32 % of control
dose: 1.0 mg/kg/injection, schedule: Q01DX011 (ip), vehicle: alkali diluted with saline
  T/C: 12 % of control
dose: 1.0 mg/kg/injection, schedule: Q01DX011 (ip), vehicle: other
  T/C: 3 % of control
dose: 2.0 mg/kg/injection, schedule: Q01DX011 (ip), vehicle: alkali diluted with saline
  T/C: 1 % of control
dose: 8.0 mg/kg/injection, schedule: Q01DX011 (ip), vehicle: alkali diluted with saline
  T/C: 1 % of control

## CC/C(=C(/CC)c1ccc(O)cc1)c1ccc(O)cc1
dose: 40.0 mg/kg/injection, schedule: Q01DX011 (sc), vehicle: steriod suspending solution
  T/C: 114 % of control
dose: 41.2 mg/kg/injection, schedule: Q01DX011 (sc), vehicle: steriod suspending solution
  T/C: 53 % of control
dose: 62.5 mg/kg/injection, schedule: Q01DX011 (sc), vehicle: steriod suspending solution
  T/C: 41 % of control
dose: 68.66 mg/kg/injection, schedule: Q01DX011 (sc), vehicle: steriod suspending solution
  T/C: 45 % of control
dose: 80.0 mg/kg/injection, schedule: Q01DX011 (sc), vehicle: steriod suspending solution
  T/C: 178 % of control
dose: 103.0 mg/kg/injection, schedule: Q01DX011 (sc), vehicle: steriod suspending solution
  T/C: 38 % of control and 44 % of control and 50 % of control
dose: 125.0 mg/kg/injection, schedule: Q01DX011 (sc), vehicle: steriod suspending solution
  T/C: 33 % of control
dose: 160.0 mg/kg/injection, schedule: Q01DX011 (sc), vehicle: steriod suspending solution
  T/C: 111 % of control
dose: 250.0 mg/kg/injection, schedule: Q01DX011 (sc), vehicle: steriod suspending solution
  T/C: 48 % of control
dose: 320.0 mg/kg/injection, schedule: Q01DX011 (sc), vehicle: steriod suspending solution
  T/C: 98 % of control

## Cc1ccc(CNc2ncnc3c2cnn3C2CCCCO2)cc1 (centres undefined)
dose: 18.7 mg/kg/injection, schedule: Q01DX011 (ip), vehicle: methylcellulose (MC)
  T/C: 109 % of control
dose: 37.5 mg/kg/injection, schedule: Q01DX011 (ip), vehicle: methylcellulose (MC)
  T/C: 35 % of control
[2]
  T/C: 88 % of control
dose: 150.0 mg/kg/injection, schedule: Q01DX011 (ip), vehicle: methylcellulose (MC)
  T/C: 44 % of control

## CS(=O)(=O)OCCCCCCCCCOS(C)(=O)=O
[3]
  T/C: 35 % of control
[4]
  T/C: 49 % of control
[5]
  T/C: 54 % of control
[6]
  T/C: 26 % of control
dose: 28.0 mg/kg/injection, schedule: Q01DX011 (ip), vehicle: carboxymethylcellulose (CMC)
  T/C: 7 % of control

## NC1C(O)C(O)C(Nc2ncnc3nc[nH]c23)OC1C(O)CO (centres undefined)
dose: 0.18 mg/kg/injection, schedule: Q## X000 (ip), vehicle: carboxymethylcellulose (CMC)
  T/C: 65 % of control
dose: 0.35 mg/kg/injection, schedule: Q## X000 (ip), vehicle: carboxymethylcellulose (CMC)
  T/C: 65 % of control
dose: 0.7 mg/kg/injection, schedule: Q## X000 (ip), vehicle: carboxymethylcellulose (CMC)
  T/C: 67 % of control
dose: 1.35 mg/kg/injection, schedule: Q## X000 (ip), vehicle: carboxymethylcellulose (CMC)
  T/C: 107 % of control

## CC(C)n1cnc2c(Cl)ncnc21
[4]
  T/C: 101 % of control
[5]
  T/C: 115 % of control
[6]
  T/C: 92 % of control
dose: 62.0 mg/kg/injection, schedule: Q01DX011 (ip), vehicle: carboxymethylcellulose (CMC)
  T/C: 4 % of control and 11 % of control
[7]
  T/C: 5 % of control and 8 % of control
[8]
  T/C: 8 % of control

## CCCNc1ncnc2c1cnn2C1CCCCO1 (centres undefined)
dose: 3.12 mg/kg/injection, schedule: Q01DX011 (ip), vehicle: methylcellulose (MC)
  T/C: 67 % of control
dose: 6.25 mg/kg/injection, schedule: Q01DX011 (ip), vehicle: methylcellulose (MC)
  T/C: 54 % of control
dose: 12.5 mg/kg/injection, schedule: Q01DX011 (ip), vehicle: methylcellulose (MC)
  T/C: 44 % of control
